Source: US11299474B2, “Crystal form targeting CDK4/6 kinase inhibitor” (XUANZHU BIOPHARMACEUTICAL CO., LTD., priority 2018, dated 2022)
“Also recorded” adds a separate entry of the source.

Legend:
Assay type in all cases: physicochemical
[1] = Stability test (appearance, related substances, XRPD) under high humidity, 60° C. and light
Method: Experiment Method: The test product was placed under high humidity (25° C./RH 92.5% or 40° C./RH 75%) conditions or under 60° C. conditions for 10 days, and samples were taken on the 5th and 10th days, respectively; and placed under light (4500 LX±500 LX) conditions for 10 days, a sample was taken on the 10th day and tested for related substances and XRPD, and the same was compared with the sample of day 0.
Relevant substances: Measured according to Chinese Pharmacopoeia, 2015 edition, Volume II, Appendix V D High Performance Liquid Chromatography.
XRPD measurement: Measured according to Chinese Pharmacopoeia, 2015 edition, Volume IV, 0451 X-Ray Diffraction Method.
The test product was placed under 25° C./RH 92.5% or under 60° C. conditions for 10 days, and was sampled on the 5th and 10th days respectively; the test product was placed under light (4500 LX±500 LX) or 40° C./RH 75% conditions for 10 days, sampled on the 10th day and tested for related substances and XRPD, and compared with the sample of day 0.
Related substances: Measured according to Chinese Pharmacopoeia, 2015 edition, Volume II, Appendix V D High Performance Liquid Chromatography.
XRPD Measurement: Chinese Pharmacopoeia, 2015 edition, Volume IV, 0451 X-Ray Diffraction Method.

Hygroscopicity test = conditions: Chinese Pharmacopoeia 2015, 9103
Text: Measurement method: Measured according to Chinese Pharmacopoeia, 2015 edition, Volume IV, General Principles, 9103 Guiding Principles for Hygroscopicity Test on Drugs.

[2] = Compressibility experiment (tablet hardness vs tablet thickness); conditions: for Maximum tablet hardness: as tablet thickness decreases (tableting force increases)
Text: The change of tablet hardness with tablet thickness was investigated, and compressibility was compared.

Tablet disintegration = conditions: 40 mg tablet with adjuvants
Text: (§1) The disintegration and dissolution was investigated under the following conditions.
(§2) Dissolution Method: Paddle method (Chinese Pharmacopoeia, 2015 edition, Volume IV, 0931 Dissolution and Release Measurement methods, Method II); medium: 0.2% SDS aqueous solution; and rotation speed: 50 r/min.

[3] = Tablet dissolution, paddle method; conditions: 0.2% SDS aqueous solution, 50 r/min
Text: as §1, §2

[4] = Particle size measurement (laser particle size analyzer); conditions: water dispersant, Tween 80
Method: An appropriate amount of the test product was taken, 0.1 mL of a 1% Tween 80 solution was added to reduce the surface tension, and water was used as a dispersant to prepare a uniformly dispersed suspension. The same was placed in a sample dispersion device, the stirring speed was adjusted to 2000 rpm, ultrasonication was carried out for 2 min at an ultrasonic frequency of 7 KHz, and measurement was carried out.

With CCN1CCN(Cc2cnc(Nc3cc(-c4cc(F)c5nc(C)n(C(C)C)c5c4)c(F)cn3)nc2)CC1 [Compound of formula (I), 5-((4-ethylpiperazin-1-yl)methyl)-N-(5-fluoro-4-(4-fluoro-1-isopropyl-2-methyl-1H-benzo[d]imidazol-6-yl)pyridin-2-yl)pyrimidin-2-amine] the Appearance ([1]; 0 day) was “Off-white”, the “Related substance (%)” value ([1]; 0 day) was 0.14% and the “XRPD (solid form found)” value ([1]; 0 day) was “Amorphous”. The Appearance ([1]; 25° C./RH 92.5% Open, 5 day) was “Off-white”, the “Related substance (%)” value ([1]; 25° C./RH 92.5% Open, 5 day) was 0.14% and the “XRPD (solid form found)” value ([1]; 25° C./RH 92.5% Open, 5 day) was “Amorphous”. For the same molecule, the Appearance ([1]; 25° C./RH 92.5% Open, 10 day) was “Off-white”, the “Related substance (%)” value ([1]; 25° C./RH 92.5% Open, 10 day) was 0.19% and the “XRPD (solid form found)” value ([1]; 25° C./RH 92.5% Open, 10 day) was “Amorphous”. For the same molecule, the Appearance ([1]; 40° C./RH 75% Open, 10 day) was “Off-white”, the “Related substance (%)” value ([1]; 40° C./RH 75% Open, 10 day) was 0.19% and the “XRPD (solid form found)” value ([1]; 40° C./RH 75% Open, 10 day) was “Amorphous”. For the same molecule, the Appearance ([1]; 60° C. Open, 5 day) was “Light yellow”, the “Related substance (%)” value ([1]; 60° C. Open, 5 day) was 0.67% and the “XRPD (solid form found)” value ([1]; 60° C. Open, 5 day) was “Amorphous”. For the same molecule, the Appearance ([1]; 60° C. Open, 10 day) was “Light yellow”, the “Related substance (%)” value ([1]; 60° C. Open, 10 day) was 1.15% and the “XRPD (solid form found)” value ([1]; 60° C. Open, 10 day) was “Amorphous”. The Appearance ([1]; Light (4500 LX±500 LX), 10 day) was “Light yellow”, the “Related substance (%)” value ([1]; Light (4500 LX±500 LX), 10 day) was 10.54% and the “XRPD (solid form found)” value ([1]; Light (4500 LX±500 LX), 10 day) was “Amorphous”. For the same molecule, the “Related substance (%)” value ([1]; Light (4500 LX±500 LX), 10 day, listed as amorphous form) was “up to 10.54%”, the Hygroscopicity results (Hygroscopicity test) was “Moisture absorbability” and the “Moisture absorption weight gain (%)” value (Hygroscopicity test) was 6.3%. For the same molecule, the Hardness of tablet ([2]; Tablet thickness 1.8 mm, listed as amorphous form) was 2.75 kg, the Hardness of tablet ([2]; Tablet thickness 2.0 mm, listed as amorphous form) was 0.59 kg and the Hardness of tablet ([2]; Tablet thickness 2.4 mm, listed as amorphous form) was 0.72 kg. For the same molecule, the Maximum tablet hardness ([2]; listed as amorphous form) was “about 2.75 kg”, the “Behaviour during tabletting (observation)” value ([2]; during the process of tabletting, listed as amorphous form) was “prone to wall sticking; also recorded: prone to capping” and the “Disintegration behaviour (observation)” value (Tablet disintegration) was “Absorbed water”. For the same molecule, the Disintegration time (Tablet disintegration; listed as Amorphous form) was greater than 30 min, the “Cumulative dissolution (%)” value ([3]; 5 min, listed as Amorphous form) was 1.0% and the “Cumulative dissolution (%)” value ([3]; 10 min, listed as Amorphous form) was 2.7%. The “Cumulative dissolution (%)” value ([3]; 15 min, listed as Amorphous form) was 4.6%, the “Cumulative dissolution (%)” value ([3]; 30 min, listed as Amorphous form) was 9.2% and the “Cumulative dissolution (%)” value ([3]; 45 min, listed as Amorphous form) was 13.2%. The “Cumulative dissolution (%)” value ([3]; 60 min, listed as Amorphous form) was 18.5%.

In the case of CCN1CCN(Cc2cnc(Nc3cc(-c4cc(F)c5nc(C)n(C(C)C)c5c4)c(F)cn3)nc2)CC1 [Crystal form A of the compound of formula (I)] [5-((4-ethylpiperazin-1-yl)methyl)-N-(5-fluoro-4-(4-fluoro-1-isopropyl-2-methyl-1H-benzo[d]imidazol-6-yl)pyridin-2-yl)pyrimidin-2-amine], the Appearance ([1]; 0 day) was “Off-white”, the “Related substance (%)” value ([1]; 0 day) was 0.11% and the “XRPD (solid form found)” value ([1]; 0 day) was “Crystal form A”. For the same molecule, the Appearance ([1]; 25° C./RH 92.5% Open, 5 day) was “Off-white”, the “Related substance (%)” value ([1]; 25° C./RH 92.5% Open, 5 day) was 0.09% and the “XRPD (solid form found)” value ([1]; 25° C./RH 92.5% Open, 5 day) was “Crystal form A”. The Appearance ([1]; 25° C./RH 92.5% Open, 10 day) was “Off-white”, the “Related substance (%)” value ([1]; 25° C./RH 92.5% Open, 10 day) was 0.09% and the “XRPD (solid form found)” value ([1]; 25° C./RH 92.5% Open, 10 day) was “Crystal form A”. For the same molecule, the Appearance ([1]; 40° C./RH 75% Closed, 5 day) was “Off-white”, the “Related substance (%)” value ([1]; 40° C./RH 75% Closed, 5 day) was 0.10% and the “XRPD (solid form found)” value ([1]; 40° C./RH 75% Closed, 5 day) was “Crystal form A”. The Appearance ([1]; 40° C./RH 75% Closed, 10 day) was “Off-white”, the “Related substance (%)” value ([1]; 40° C./RH 75% Closed, 10 day) was 0.20% and the “XRPD (solid form found)” value ([1]; 40° C./RH 75% Closed, 10 day) was “Crystal form A”. For the same molecule, the Appearance ([1]; 40° C./RH 75% Open, 5 day) was “Off-white”, the “Related substance (%)” value ([1]; 40° C./RH 75% Open, 5 day) was 0.10% and the “XRPD (solid form found)” value ([1]; 40° C./RH 75% Open, 5 day) was “Crystal form A”. For the same molecule, the Appearance ([1]; 40° C./RH 75% Open, 10 day) was “Off-white”, the “Related substance (%)” value ([1]; 40° C./RH 75% Open, 10 day) was 0.20% and the “XRPD (solid form found)” value ([1]; 40° C./RH 75% Open, 10 day) was “Crystal form A”. For the same molecule, the Appearance ([1]; 60° C. Closed, 5 day) was “Off-white”, the “Related substance (%)” value ([1]; 60° C. Closed, 5 day) was 0.09% and the “XRPD (solid form found)” value ([1]; 60° C. Closed, 5 day) was “Crystal form A”. For the same molecule, the Appearance ([1]; 60° C. Closed, 10 day) was “Off-white”, the “Related substance (%)” value ([1]; 60° C. Closed, 10 day) was 0.11% and the “XRPD (solid form found)” value ([1]; 60° C. Closed, 10 day) was “Crystal form A”. The Appearance ([1]; 60° C. Open, 5 day) was “Off-white”, the “Related substance (%)” value ([1]; 60° C. Open, 5 day) was 0.11% and the “XRPD (solid form found)” value ([1]; 60° C. Open, 5 day) was “Crystal form A”. The Appearance ([1]; 60° C. Open, 10 day) was “Off-white”, the “Related substance (%)” value ([1]; 60° C. Open, 10 day) was 0.14% and the “XRPD (solid form found)” value ([1]; 60° C. Open, 10 day) was “Crystal form A”. For the same molecule, the “Change of properties (appearance, related substances, XRPD)” value ([1]; 60° C. or light conditions, 10 days) was “no obvious change”, the Appearance ([1]; Light (4500 LX±500 LX), 10 day) was “Off-white” and the “Related substance (%)” value ([1]; Light (4500 LX±500 LX), 10 day) was 0.09%. The “XRPD (solid form found)” value ([1]; Light (4500 LX±500 LX), 10 day) was “Crystal form A”, the Hygroscopicity results (Hygroscopicity test) was “No or almost no moisture” and the “Moisture absorption weight gain (%)” value (Hygroscopicity test) was 0.003%. The “Particle size distribution, 10% of the sample” value [4] was no more than 2.501 μm, the “Particle size distribution, 50% of the sample” value [4] was no more than 10.432 μm and the “Particle size distribution, 90% of the sample” value [4] was no more than 59.852 μm. The Hardness of tablet ([2]; Tablet thickness 0.9 mm, "/" means no tablet can be formed at that thickness) was 2.97 kg, the Hardness of tablet ([2]; Tablet thickness 1.3 mm, "/" means no tablet can be formed at that thickness) was 3.50 kg and the Hardness of tablet ([2]; Tablet thickness 1.8 mm) was 5.40 kg. For the same molecule, the Hardness of tablet ([2]; Tablet thickness 2.0 mm) was 1.76 kg, the Hardness of tablet ([2]; Tablet thickness 2.4 mm) was 0 kg and the Maximum tablet hardness [2] was “about 5.4 kg”. The Disintegration time (Tablet disintegration) was 4 min, the “Time to complete dissolution” value [3] was no more than 60 min and the “Cumulative dissolution (%)” value ([3]; 5 min) was 69.2%. For the same molecule, the “Cumulative dissolution (%)” value ([3]; 10 min) was 90.7%, the “Cumulative dissolution (%)” value ([3]; 15 min) was 93.8% and the “Cumulative dissolution (%)” value ([3]; 30 min) was 96.6%. For the same molecule, the “Cumulative dissolution (%)” value ([3]; 45 min) was 97.5% and the “Cumulative dissolution (%)” value ([3]; 60 min) was 97.9%.
